Data from patent US12709609B2, “Crystalline form of Selinexor” (Karyopharm Therapeutics Inc., priority 2020, dated 2026).

Assays:
[1] = Thermogravimetric analysis (TGA); assay type: physicochemical; settings: from ambient temperature to about 200° C., followed by sample degradation
Experimental: TGA data were collected on a TA Instruments Q500 TGA, equipped with a 16 position auto-sampler. Typically, 5-10 mg of each sample was loaded onto a pre-tared aluminum DSC pan and heated to 10° C./min from ambient temperature to 350° C. A nitrogen purge at 60 ml/min was maintained over the sample. The instrument control software was Advantage for Q Series and Thermal Advantage and the data were analysed using Universal Analysis or TRIOS

[2] = Dynamic vapor sorption (DVS) moisture sorption isotherm; assay type: physicochemical
Experimental: Sorption isotherms were obtained using a SMS DVS Intrinsic moisture sorption analyser, controlled by DVS Intrinsic Control software. The sample temperature was maintained at 25° C. by the instrument controls. The humidity was controlled by mixing streams of dry and wet nitrogen, with a total flow rate of 200 ml/min. The relative humidity was measured by a calibrated Rotronic probe (dynamic range of 1.0-100% RH), located near the sample. The weight change, (mass relaxation) of the sample as a function of % RH was constantly monitored by a microbalance (accuracy±0.005 mg). Typically, 5 to 30 mg of sample was placed in a tared mesh stainless steel basket under ambient conditions. The sample was loaded and unloaded at 40% RH and 25° C. (typical room conditions). A moisture sorption isotherm was performed as outlined below (2 scans per complete cycle). The standard isotherm was performed at 25° C. at 10% RH intervals over a 0-90% RH range. Typically, a double cycle (4 scans) was carried out. Data analysis was carried out within Microsoft Excel using the DVS Analysis Suite. [table] The sample was recovered after completion of the isotherm and re-analysed by XRPD.

TGA weight change on heating [1]: No weight change
XRPD pattern after the DVS cycle compared with XRPD prior to the DVS cycle (form stability) ([2]; after DVS cycle 0-90% RH): identical
DVS weight gain ([2]; at 90% RH, 25° C., two DVS cycles): about 0.16%
moisture uptake behaviour in DVS ([2]; over 0-90% RH range): gradual reversible uptake
SMILES: O=C(/C=C\n1cnc(-c2cc(C(F)(F)F)cc(C(F)(F)F)c2)n1)NNc1cnccn1 [crystalline Form ZL, (Z)-3-(3-(3,5-bis(trifluoromethyl)phenyl)-1H-1,2,4-triazol-1-yl)-N′-(pyrazin-2-yl) acrylohydrazide]
